pIC50: −log10 of the molar value.
Assays:
[1] = Selectivity index, ratio of CC50 for human HepG2(2.2.15) cells to IC50 for HBV surface antigen secretion; assay type: functional
[2] = Selectivity index, ratio of CC50 for human HepG2(2.2.15) cells to IC50 for HBV early antigen secretion; assay type: functional
Hepatitis B virus [3] = assay: Antiviral activity against HBV assessed as inhibition of viral surface antigen secretion; assay type: functional, organism-based
Hepatitis B virus [4] = assay: Antiviral activity against HBV assessed as inhibition of viral early antigen secretion; assay type: functional, organism-based
[5] = Cytotoxicity against human HepG2(2.2.15) cells; assay type: cell-based

Row | pIC50 (Hepatitis B virus [3]) | pIC50 (Hepatitis B virus [4]) | SMILES | Ratio CC50/IC50 [1] | Ratio CC50/IC50 [2] | CC50 [5] [µM]
1 | 3.60 | 3.49 | CCOCC(=O)O[C@@H](C[C@@H](C)[C@]12CC[C@@]3(C)[C@@]1(C[C@H](OC(=O)COCC)[C@H]1[C@@]4(C)CCC(=O)C(C)(C)[C@@H]4CC[C@@]13C)O2)[C@@H](OC(=O)COCC)C(C)(C)OC(=O)COCC | >5.6 | >4.4 | > 1400
2 | 3.89 | < 3.60 | CCOCC(=O)O[C@@H](C[C@@H](C)[C@]12CC[C@@]3(C)[C@@]1(C[C@H](OC(=O)COCC)[C@H]1[C@@]4(C)CCC(=O)C(C)(C)[C@@H]4CC[C@@]13C)O2)[C@@H](OC(=O)COCC)C(C)(C)O | 1.9 | <1 | 250
3 | 4.55 | 4.57 | COCC(=O)O[C@@H](C[C@@H](C)C1=C2C[C@H](OC(=O)COC)[C@H]3[C@@]4(C)CCC(=O)C(C)(C)[C@@H]4CC[C@]3(C)[C@@]2(C)CC1)[C@@H](OC(=O)COC)C(C)(C)OC(=O)COC | >90 | >93 | > 2500
4 | 1.74 | 1.42 | Nc1ccn([C@@H]2CS[C@H](CO)O2)c(=O)n1 [LAMIVUDINE] | 1.7 | 0.82 | 31000
5 | 4.70 | 4.52 | C=C(C)[C@H](OC(=O)COCC)[C@H](C[C@@H](C)C1=C2C[C@H](OC(=O)COCC)[C@H]3[C@@]4(C)CCC(=O)C(C)(C)[C@@H]4CC[C@]3(C)[C@@]2(C)CC1)OC(=O)COCC | >60 | >40 | > 1200
6 | 3.05 | < 2.96 | COCC(=O)O[C@@H](C[C@@H](C)[C@]12CC[C@@]3(C)[C@@]1(C[C@H](OC(=O)COC)[C@H]1[C@@]4(C)CCC(=O)C(C)(C)[C@@H]4CC[C@@]13C)O2)[C@@H](OC(=O)COC)C(C)(C)O | 1.2 | <1 | 1100
7 | 3.40 | 2.70 | CCOCC(=O)O[C@@H](C[C@@H](C)C1=C2C[C@H](OC(=O)COCC)[C@H]3[C@@]4(C)CCC(=O)C(C)(C)[C@@H]4CC[C@]3(C)[C@@]2(C)CC1)[C@@H](OC(=O)COCC)C(C)(C)O | >6.5 | >1.3 | > 2600
8 | 3.49 | 4.03 | C[C@H](C[C@H](OC(=O)CNC(=O)OC(C)(C)C)[C@@H](OC(=O)CNC(=O)OC(C)(C)C)C(C)(C)O)C1=C2C[C@H](OC(=O)CNC(=O)OC(C)(C)C)[C@H]3[C@@]4(C)CCC(=O)C(C)(C)[C@@H]4CC[C@]3(C)[C@@]2(C)CC1 | >4.7 | >16 | > 1500
9 | 4.17 | 3.92 | C=C(C)[C@H](OC(=O)COC)[C@H](C[C@@H](C)C1=C2C[C@H](OC(=O)COC)[C@H]3[C@@]4(C)CCC(=O)C(C)(C)[C@@H]4CC[C@]3(C)[C@@]2(C)CC1)OC(=O)COC | >42 | >24 | > 2800
10 | 3.54 | 3.06 | CC(=O)NCC(=O)O[C@@H](C[C@@H](C)C1=C2C[C@H](OC(=O)CNC(C)=O)[C@H]3[C@@]4(C)CCC(=O)C(C)(C)[C@@H]4CC[C@]3(C)[C@@]2(C)CC1)[C@@H](OC(=O)CNC(C)=O)C(C)(C)O | <1 | <1 | 270
11 | 2.92 | 3.85 | C[C@H](C[C@H](OC(=O)CN1C(=O)c2ccccc2C1=O)[C@@H](OC(=O)CN1C(=O)c2ccccc2C1=O)C(C)(C)O)C1=C2C[C@H](OC(=O)CN3C(=O)c4ccccc4C3=O)[C@H]3[C@@]4(C)CCC(=O)C(C)(C)[C@@H]4CC[C@]3(C)[C@@]2(C)CC1 | >1.2 | >11 | > 1500

Source: ChEMBL document CHEMBL1153983, “Anti-HBV agents. Part 2: synthesis and in vitro anti-hepatitis B virus activities of alisol A derivatives” (Bioorg Med Chem Lett, 2009)
